target: CREBBP (Homo sapiens (Human), UniProt Q92793); experiment: In vitro enzyme inhibition assay - CREBBP inhibition (AlphaScreen, biotinylated H4-tetraacetyl peptide); format: binding; conditions: Table 28; AlphaScreen, H4-tetraacetyl peptide
Procedure, shortened: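 Displacement of 20 nM biotinylated tetraacetyl-H4 peptide from 50 nM E. coli-expressed His-CREBBP, measured by AlphaScreen after bead equilibration for 2 h.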

CREBBP, sequence (Q92793 1081-1197): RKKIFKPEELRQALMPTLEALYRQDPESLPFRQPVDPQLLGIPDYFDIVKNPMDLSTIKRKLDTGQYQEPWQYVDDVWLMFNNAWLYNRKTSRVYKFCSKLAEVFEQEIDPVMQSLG

Row | Structure (SMILES) | IC50 [nM]
1 | CC[C@@H](C)S(=O)(=O)Nc1cc(-c2ccc(=O)n(C)c2)nc(Oc2c(C)ccc(F)c2F)n1 [Example 212, (2R)-Butane-2-sulfonic acid [2-(2,3-difluoro-6-methyl-phenoxy)-6-(1-methyl-6-oxo-1,6-dihydro-pyridin-3-yl)-pyrimidin-4-yl]-amide] | < 500
2 | CC[C@H](C)S(=O)(=O)Nc1cc(-c2ccc(=O)n(C)c2)nc(Oc2c(C)ccc(F)c2F)n1 [Example 213, (2S)-Butane-2-sulfonic acid [2-(2,3-difluoro-6-methyl-phenoxy)-6-(1-methyl-6-oxo-1,6-dihydro-pyridin-3-yl)-pyrimidin-4-yl]-amide] | < 500
3 | CCc1cccc(F)c1Oc1nc(NS(=O)(=O)[C@H](C)CC)cc(-c2ccc(=O)n(C)c2)n1 [Example 214, (2R)-Butane-2-sulfonic acid [2-(2-ethyl-6-fluoro-phenoxy)-6-(1-methyl-6-oxo-1,6-dihydro-pyridin-3-yl)-pyrimidin-4-yl]-amide] | < 500
4 | CCc1cccc(F)c1Oc1nc(NS(=O)(=O)[C@@H](C)CC)cc(-c2ccc(=O)n(C)c2)n1 [Example 215, (2S)-Butane-2-sulfonic acid [2-(2-ethyl-6-fluoro-phenoxy)-6-(1-methyl-6-oxo-1,6-dihydro-pyridin-3-yl)-pyrimidin-4-yl]-amide] | < 500
5 | CCC[C@H](C)S(=O)(=O)Nc1cc(-c2ccc(=O)n(C)c2)nc(Oc2c(F)cccc2Cl)n1 [Example 218, (2S)-Pentane-2-sulfonic acid [2-(2-chloro-6-fluoro-phenoxy)-6-(1-methyl-6-oxo-1,6-dihydro-pyridin-3-yl)-pyrimidin-4-yl]-amide] | < 500
6 | CC[C@H](C)S(=O)(=O)Nc1cc(-c2cc(C)c(=O)n(C)c2)nc(Oc2c(C)cccc2Cl)n1 [Example 222, (S)-N-(2-(2-chloro-6-methylphenoxy)-6-(1,5-dimethyl-6-oxo-1,6-dihydropyridin-3-yl)pyrimidin-4-yl)butane-2-sulfonamide] | < 500
7 | CCC[C@H](C)S(=O)(=O)Nc1cc(-c2cc(C)c(=O)n(C)c2)nc(Oc2c(C)cccc2Cl)n1 [Example 223, (S)-N-(2-(2-chloro-6-methylphenoxy)-6-(1,5-dimethyl-6-oxo-1,6-dihydropyridin-3-yl)pyrimidin-4-yl)pentane-2-sulfonamide] | < 500

Other lines, results leading:

Row | IC50 [nM] | Structure (SMILES)
8 | < 500 | CCC[C@H](C)S(=O)(=O)Nc1cc(-c2ccc(=O)n(C)c2)nc(Oc2c(C)cccc2F)n1 [Example 216, (2S)-Pentane-2-sulfonic acid [2-(2-fluoro-6-methyl-phenoxy)-6-(1-methyl-6-oxo-1,6-dihydro-pyridin-3-yl)-pyrimidin-4-yl]-amide]
9 | < 500 | CCC[C@H](C)S(=O)(=O)Nc1cc(-c2ccc(=O)n(C)c2)nc(Oc2c(C)cccc2Cl)n1 [Example 217, (2S)-Pentane-2-sulfonic acid [2-(2-chloro-6-methyl-phenoxy)-6-(1-methyl-6-oxo-1,6-dihydro-pyridin-3-yl)-pyrimidin-4-yl]-amide]
10 | < 500 | CCC[C@@H](C)S(=O)(=O)Nc1cc(-c2ccc(=O)n(C)c2)nc(Oc2c(C)cccc2F)n1 [Example 219, (2R)-Pentane-2-sulfonic acid [2-(2-fluoro-6-methyl-phenoxy)-6-(1-methyl-6-oxo-1,6-dihydro-pyridin-3-yl)-pyrimidin-4-yl]-amide]
11 | < 500 | CCC[C@@H](C)S(=O)(=O)Nc1cc(-c2ccc(=O)n(C)c2)nc(Oc2c(F)cccc2Cl)n1 [Example 220, (2R)-Pentane-2-sulfonic acid [2-(2-chloro-6-fluoro-phenoxy)-6-(1-methyl-6-oxo-1,6-dihydro-pyridin-3-yl)-pyrimidin-4-yl]-amide]
12 | < 500 | CCC[C@@H](C)S(=O)(=O)Nc1cc(-c2ccc(=O)n(C)c2)nc(Oc2c(C)cccc2Cl)n1 [Example 221, (2R)-Pentane-2-sulfonic acid [2-(2-chloro-6-methyl-phenoxy)-6-(1-methyl-6-oxo-1,6-dihydro-pyridin-3-yl)-pyrimidin-4-yl]-amide]
